Tests used:
[1] = Anti-diabetes action in KKA^y mouse (glycohemoglobin); format: in vivo, female KKA^y mouse; conditions: 0.01% mixed with feed, 2 weeks; variation from value before administration; n=6
Protocol: Female KKA^y mice (12-13 week-old, CLEA Japan, Inc.) were bred allowing free ingestion of both feed and water. The mice were acclimation bred with powder CE-2 (CLEA Japan, Inc.) from 2 weeks before administration of the test compound. The body weight, blood glycohemoglobin % (GHb %) value, plasma glucose, triglyceride and total cholesterol concentration were measured, and the mice were divided into 3 groups or 5 groups (6 mice/group) such that those measurement values are uniform at the start of the administration. The compound was administered by mixing (0.01-0.03%) in the feed for 2 weeks. GHb % was measured on the last day. GHb % was measured using Tosoh Corporation automatic glycohemoglobin analyzer (HLC-723GHbV Alc2.2). The numerical values in Table 11 show the variation from the value before administration to the measured value after administration in mean±standard deviation at n=6 (n is the number of mice).

[2] = test system: differentiated C2C12 muscle cell; test: Sugar metabolism promoting activity in muscle cell (lactic acid production); format: cell-based, mouse; conditions: C2C12 myotube, 1 μM compound, 2 days; lactic acid concentration without compound = 100%
Protocol: • (1) In the same manner as in Experimental Example 1, C2C12 cell was cultured in a growth medium. When the cells reached subconfluence, the medium was exchanged with a differentiation medium, and the cells were cultured for 3 to 4 days while exchanging the medium every 2 or 3 days until the cells differentiated to form a myotube. • (2) After confirmation of myotube formation under a microscope, the compound (1 μM) was added to a differentiation medium and cultured for 2 days. The cells were washed with Krebs-Ringer HEPES phosphate buffer (10 mM HEPES, pH 7.4, 131 mM NaCl, 4.7 mM KCl, 2.5 mM CaCl2-2H2O, 1.2 mM MgSO4-7H2O, 1.2 mM KH2PO4), the medium was exchanged with Krebs-Ringer HEPES phosphate buffer containing 5 mM glucose, 0.2% fatty acid-free bovine serum albumin, and the cells were cultured at 37° C. for 4 hr. • (3) The lactic acid concentration of the culture supernatant was measured using Detarminer LA kit (Kyowa Medex Co., Ltd.).
The numerical values in Table 4 show the lactic acid concentration of the compound addition group with the lactic acid concentration without addition of the compound as 100%.

NF-kB = NF-kB activation suppressive action in muscle cell (luciferase reporter, TNF-α induced); format: cell-based, mouse; conditions: TNF-α 10 ng/mL, activity without TNF-α = 1, n=8
Protocol: • (1) C2C12 cells introduced with NF-kB reporter plasmid (C2C12/NF-kB-luc, Panomics) was plated at 20000 cells/cm^2, 100 μg/ml hygromycin was added thereto, and the cells were cultured in a growth medium in the same manner as in Example 1. • (2) The cells were cultured in a differentiation medium containing the compound of Example 1, Example 8, Example 9, Example 10 or Example 11 for 1 hr, TNF-α was added thereto such that the concentration is 10 ng/mL, and the cells were cultured for 4 hr. • (3) The luciferase activity in the medium was measured using a Stedy-Glo luciferase assay system (Promega). The NF-kB activity was evaluated by measuring the luciferase activity.
The data in Table 6 to Table 10 show mean±standard deviation at n=8 (n is the number of samples).

[3] = Anti-obesity action in high-fat diet-loaded mouse; format: in vivo, male C57BL/6J mouse; conditions: for plasma total cholesterol concentration (mg/dL) before administration: before administration (baseline); for plasma total cholesterol concentration (mg/dL) before administration / plasma total cholesterol concentration (mg/dL) after administration for 4 weeks / body weight: mean ± SD, n=6; for body weight: once a day for 4 weeks, administration completion day
Protocol: As male C57BL/6J mouse (CLEA Japan, Inc.), mice fed with a high-fat diet (45 kcal % fat, D12451, research diet) for 40 weeks from 5 weeks old were used. After acclimation bred for 3 weeks, the body weight, ingestion amount, body fat percentage, plasma triglyceride, insulin and leptin concentration were measured, and the mice were divided into 4 groups at 6 per group without difference between them. Plasma total cholesterol concentration was measured using Hitachi automatic analyzer 7180. The compound of Example 1 was suspended in aqueous methylcellulose solution, and the suspension was orally administered repeatedly to 3 groups of the […] divided into 4 groups at 3 mg/kg, 10 mg/kg or 30 mg/kg once a day for 4 weeks. A 0.5% aqueous methylcellulose solution was orally administered similarly to the remaining one group, and the group was used as a control group. On the administration completion day, the body weight and plasma total cholesterol concentration were measured. The numerical values in Table 5 show mean±standard deviation at n=6 (n is the number of mice).

3T3-L1 cells = test: Adipocyte differentiation suppressive action (fat droplet quantification); format: cell-based
Protocol: 3T3-L1 cells (ATCC) were cultured in a growth medium until confluence. 1 μM dexamethasone, 0.5 mM 3-isobutyl-1-methylxanthine and 5 μg/mL insulin were added to the medium, and the cells were cultured for 3 days. The medium was exchanged with a growth medium containing 4 μg/mL insulin and the cells were cultured for 3 more days. When the compound (1 μM) was to be added, it was added after the cells reached confluence, and the cells were cultured for 6 days. After completion of the culture period, the fat droplet formed was quantified using Adipogenesis Assay Kit (CHEMICON). The numerical values in Table 12 show the relative value when without addition of the compound as 100% (n is the number of samples).

[4] = test system: Mouse-derived myoblast line C2C12 cell; test: Cell differentiation promoting activity in myoblast (creatine kinase activity); format: cell-based; conditions: 48 h, 1 μM compound, 2 days in differentiation medium, CK activity without compound = 100%, read-out: creatinine kinase activating action (%)
Protocol: • (1) Mouse-derived myoblast line C2C12 cell (Dainippon Pharmaceutical Co., Ltd.) was subcultured in a high glucose Eagle's modified Dulbecco's medium (GIBCO) containing 10% calf fetal bovine serum (GIBCO), 100 unit/mL penicillin and 100 μg/mL streptomycin (hereinafter to be referred to as a growth medium), plated at 5000 cells/cm^2 and cultured at 37° C., under 5% CO2. • (2) When the cells reached subconfluence, the medium was exchanged with a high glucose Eagle's modified Dulbecco's medium (GIBCO) containing 2% horse serum (GIBCO) and penicillin, streptomycin and a test compound (hereinafter to be referred to as a differentiation medium), and the cells were cultured for 2 days. To the control group was added DMSO solution instead of the test compound. • (3) The cells were washed with PBS, 0.5% NP-40 solution was added thereto, and the cells were lysed by freeze-thawing. The cell extract was centrifuged, and the creatine kinase activity in the supernatant was measured as an index of muscle differentiation. The creatine kinase activity was measured using CPKII Test Wako (Wako Pure Chemical Industries, Ltd.) according to the manual of the kit. The tests using the compounds of Example 7 to Example 14 were corrected based on the total protein amount measured using CA Protein Assay Kit (Thermo Scientific).
The numerical values in Table 3 show CK activity of the compound addition group with the CK activity without addition of the compound as 100%, and 1 μM of the compound was added for the measurement.

O=C(/C=C/c1cnccc1-c1ccc(F)cc1)Nc1ccc(CCc2nnco2)cc1 [Example 1, (2E)-3-[4-(4-fluorophenyl)pyridin-3-yl]-N-{4-[2-(1,3,4-oxadiazol-2-yl)ethyl]phenyl}prop-2-enamide]
GHb change (%) [1]: −0.4% | lactic acid production promoting action (%) [2]: 226.1% | NF-κB activity (multiple) (NF-kB; 0.001 μM compound): 13.2 multiple | NF-κB activity (multiple) (NF-kB; 0.003 μM compound): 13.4 multiple | NF-κB activity (multiple) (NF-kB; 0.01 μM compound): 13.7 multiple | NF-κB activity (multiple) (NF-kB; 0.03 μM compound): 12.5 multiple | NF-κB activity (multiple) (NF-kB; 0.1 μM compound): 10.7 multiple | NF-κB activity (multiple) (NF-kB; 0.3 μM compound): 9.4 multiple | NF-κB activity (multiple) (NF-kB; 1 μM compound): 9.3 multiple | NF-κB activity (multiple) (NF-kB; 3 μM compound): 8.3 multiple | NF-κB activity (multiple) (NF-kB; 10 μM compound): 9.0 multiple | plasma total cholesterol concentration (mg/dL) before administration ([3]; 3 mg/kg/day group): 265.5 ± 29.7 mg/dL | plasma total cholesterol concentration (mg/dL) after administration for 4 weeks ([3]; 3 mg/kg/day oral): 225.9 ± 27.7 mg/dL | body weight ([3]; 3 mg/kg/day oral): 52.5 ± 2.5 g | plasma total cholesterol concentration (mg/dL) before administration ([3]; 10 mg/kg/day group): 270.9 ± 24.5 mg/dL | plasma total cholesterol concentration (mg/dL) after administration for 4 weeks ([3]; 10 mg/kg/day oral): 192.8 ± 27.6 mg/dL | body weight ([3]; 10 mg/kg/day oral): 49.0 ± 3.2 g | plasma total cholesterol concentration (mg/dL) before administration ([3]; 30 mg/kg/day group): 275.9 ± 18.2 mg/dL | plasma total cholesterol concentration (mg/dL) after administration for 4 weeks ([3]; 30 mg/kg/day oral): 161.7 ± 16.9 mg/dL | body weight ([3]; 30 mg/kg/day oral): 44.9 ± 3.1 g | body weight decreasing action ([3]; administration at 10 mg/kg or above, result in words): showed a body weight decreasing action | plasma total cholesterol concentration, result in words ([3]; high-fat diet-loaded mouse, 4 weeks oral): decreased total cholesterol concentration | lipid accumulation amount in the cell in fat differentiation, result in words (3T3-L1 cells; 1 μM): decrease the lipid accumulation amount in the cell | lipid accumulation (%) (3T3-L1 cells; 1 μM compound, 6 days, without compound = 100%, n=2): 53% | activity at 1 µM [4]: 196%
